Experimental data: patent publication US8119805B2, “Substituted disulfonamide compounds” (Gruenenthal GmbH, priority 2008, dated 2012)

Assays:
[1] = target: T1, B1R receptor of the rat (rB1R) (Rattus norvegicus, UniProt P97583); assay: Functional investigation on the bradykinin 1 receptor (B1R), FLIPR Ca2+ assay, rB1R cells; format: cell-based; conditions: test substance 10 μM; CHO K1 cells transfected with rat B1R gene; Fluo-4 Ca2+ signal; agonist Des-Arg9-bradykinin at EC80; % of maximum achievable inhibition; read-out: B1R antagonism, rat [10 μM] % inhibition
T1 construct: expressed in transfected cells; host or cells: CHO K1 cells
T1 sequence (P97583 1-337): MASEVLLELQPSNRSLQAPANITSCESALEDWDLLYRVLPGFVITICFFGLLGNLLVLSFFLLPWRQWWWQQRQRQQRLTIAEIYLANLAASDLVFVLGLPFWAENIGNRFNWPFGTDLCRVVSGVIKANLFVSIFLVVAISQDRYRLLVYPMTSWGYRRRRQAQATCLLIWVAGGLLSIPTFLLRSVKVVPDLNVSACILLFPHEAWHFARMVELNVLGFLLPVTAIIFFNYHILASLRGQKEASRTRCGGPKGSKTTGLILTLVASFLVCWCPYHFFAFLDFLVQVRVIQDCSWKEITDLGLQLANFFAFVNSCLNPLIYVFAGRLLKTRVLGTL
In short: (§1)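 CHO K1 cells stably expressing human or rat B1R, Fluo-4 loaded, read by FLIPR (λex 488, λem 540 nm). Test compound (10 μM) first gave % activation against Lys-Des-[MUT]-bradykinin ≥50 nM (hB1R) or Des-[MUT]-bradykinin 10 μM (rB1R). After 10–20 min, agonist at EC80 was added; % inhibition or IC50 from concentration series, n=2–3, N≥2.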

[2] = target: T2, human B1R receptor (hB1R) (Homo sapiens, UniProt P46663); assay: Functional investigation on the bradykinin 1 receptor (B1R), FLIPR Ca2+ assay, hB1R cells; format: cell-based; conditions: test substance 10 μM; CHO K1 cells transfected with human B1R gene; Fluo-4 Ca2+ signal; agonist Lys-Des-Arg9-bradykinin at EC80; % of maximum achievable inhibition; read-out: B1R antagonism, human [10 μM] % inhibition
T2 construct: expressed in transfected cells; host or cells: CHO K1 cells
T2 sequence (P46663 1-353): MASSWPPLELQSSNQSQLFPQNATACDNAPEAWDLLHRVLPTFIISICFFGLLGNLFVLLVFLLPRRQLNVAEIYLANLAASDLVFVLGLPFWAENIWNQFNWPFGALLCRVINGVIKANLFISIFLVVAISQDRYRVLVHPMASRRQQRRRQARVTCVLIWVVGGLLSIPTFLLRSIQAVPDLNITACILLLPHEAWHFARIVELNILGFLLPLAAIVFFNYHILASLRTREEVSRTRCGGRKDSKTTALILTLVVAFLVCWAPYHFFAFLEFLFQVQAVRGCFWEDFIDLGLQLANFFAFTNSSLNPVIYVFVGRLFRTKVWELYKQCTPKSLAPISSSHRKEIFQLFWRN
In short: as §1

| SMILES | inhibition at 10 µM [1] | inhibition at 10 µM [2] |
| --- | --- | --- |
| O=S(=O)(CCC[C@@H]1CCCN1S(=O)(=O)c1c(Cl)cc(C(F)(F)F)cc1Cl)N1CCC(Oc2ccncc2)CC1 [Example 72, (S)-4-(1-(3-(1-(2,6-Dichloro-4-(Trifluoromethyl)phenylsulfonyl)pyrrolidin-2-yl)propylsulfonyl)piperidin-4-yloxy)pyridine] | 45% | 38% |
| Cc1cc(F)cc(C)c1S(=O)(=O)N1CCC[C@H]1CCCS(=O)(=O)N1CCC(Oc2ccncc2)CC1 [Example 73, (S)-4-(1-(3-(1-(4-Fluoro-2,6-dimethylphenylsulfonyl)pyrrolidin-2-yl)propylsulfonyl)piperidin-4-yloxy)pyridine] | 99% | 89% |
| COc1cc(C)c(S(=O)(=O)N2CCCCC2CCCS(=O)(=O)N2CCC3(CCN(c4ccncc4)CC3)CC2)c(C)c1 (centres unmarked) [Example 74, 3-(3-(1-(4-Methoxy-2,6-dimethylphenylsulfonyl)piperidin-2-yl)propylsulfonyl)-9-(pyridin-4-yl)-3,9-diazaspiro[5.5]undecane] | 95% | 99% |
| Cc1ccc(S(=O)(=O)N2CCC[C@H]2CCCS(=O)(=O)N2CCC3(CCN(c4ccncc4)CC3)CC2)c2ccccc12 [Example 75, 3-(3-((S)-1-(4-Methylnaphthalen-1-ylsulfonyl)pyrrolidin-2-yl)propylsulfonyl)-9-(pyridin-4-yl)-3,9-diazaspiro[5.5]undecane] | 100% | 96% |
| O=S(=O)(CCC[C@@H]1CCCN1S(=O)(=O)c1cccc2c(Cl)cccc12)N1CCC2(CCN(c3ccncc3)CC2)CC1 [Example 76, 3-(3-((S)-1-(5-Chloronaphthalen-1-ylsulfonyl)pyrrolidin-2-yl)propylsulfonyl)-9-(pyridin-4-yl)-3,9-diazaspiro[5.5]undecane] | 95% | 95% |
| COc1ccc(S(=O)(=O)N2CCC[C@H]2CCCS(=O)(=O)N2CCC3(CCN(c4ccncc4)CC3)CC2)c2ccccc12 [Example 77, 3-(3-((S)-1-(4-Methoxynaphthalen-1-ylsulfonyl)pyrrolidin-2-yl)propylsulfonyl)-9-(pyridin-4-yl)-3,9-diazaspiro[5.5]undecane] | 97% | 81% |
| O=S(=O)(CCC[C@@H]1CCCN1S(=O)(=O)c1ccc(F)c2ccccc12)N1CCC2(CCN(c3ccncc3)CC2)CC1 [Example 78, 3-(3-((S)-1-(4-Fluoronaphthalen-1-ylsulfonyl)pyrrolidin-2-yl)propylsulfonyl)-9-(pyridin-4-yl)-3,9-diazaspiro[5.5]undecane] | 93% | 91% |
| O=S(=O)(CCC[C@@H]1CCCN1S(=O)(=O)c1ccc(Cl)c2ccccc12)N1CCC2(CCN(c3ccncc3)CC2)CC1 [Example 79, 3-(3-((S)-1-(4-Chloronaphthalen-1-ylsulfonyl)pyrrolidin-2-yl)propylsulfonyl)-9-(pyridin-4-yl)-3,9-diazaspiro[5.5]undecane] | 96% | 77% |
| COc1cc(C)c(S(=O)(=O)N2CCC[C@H]2CCCS(=O)(=O)N2CC(N3[C@@H]4CC[C@H]3C[C@H](Oc3ccncc3)C4)C2)c(C)c1 [Example 80, (1R,3s,5S)-8-(1-(3-((S)-1-(4-Methoxy-2,6-ydimethylphenylsulfonyl)pyrrolidin-2-l)propylsulfonyl)azetidin-3-yl)-3-(pyridin-4-yloxy)-8-azabicyclo[3.2.1]octane] | 102% | 99% |
| Cc1cccc(Cl)c1S(=O)(=O)N1CCC[C@H]1CCCS(=O)(=O)N1CC(N2[C@@H]3CC[C@H]2C[C@H](Oc2ccncc2)C3)C1 [Example 81, (1R,3s,5S)-8-(1-(3-((S)-1-(2-Chloro-6-methylphenylsulfonyl)pyrrolidin-2-yl)propylsulfonyl)azetidin-3-yl)-3-(pyridin-4-yloxy)-8-azabicyclo[3.2.1]octane] | 98% | 96% |
| COc1cc(C)c(S(=O)(=O)N2CCC[C@H]2CCCS(=O)(=O)N2CCC3(CCN(c4ccncc4)C3)C2)c(C)c1 (stereo partly drawn) [Example 82, 2-(3-((S)-1-(4-Methoxy-2,6-dimethylphenylsulfonyl)pyrrolidin-2-yl)propylsulfonyl)-7-(pyridin-4-yl)-2,7-diazaspiro[4.4]nonane] | 103% | 100% |
| Cc1cccc(Cl)c1S(=O)(=O)N1CCC[C@H]1CCCS(=O)(=O)N1CCC2(CCN(c3ccncc3)C2)C1 (stereo partly drawn) [Example 83, 2-(3-((S)-1-(2-Chloro-6-methylphenylsulfonyl)pyrrolidin-2-yl)propylsulfonyl)-7-(pyridin-4-yl)-2,7-diazaspiro[4.4]nonane] | 104% | 99% |
| COc1cc(C)c(S(=O)(=O)N2CCC[C@H]2CCCS(=O)(=O)N2CCC3(CCN(c4ccncc4)C3)C2)cc1C (stereo partly drawn) [Example 84, 2-(3-((S)-1-(4-Methoxy-2,5-dimethylphenylsulfonyl)pyrrolidin-2-yl)propylsulfonyl)-7-(pyridin-4-yl)-2,7-diazaspiro[4.4]nonane] | 82% | 96% |
| COc1cc(C)c(S(=O)(=O)N2CCC[C@H]2CCCS(=O)(=O)N2CCC3(CCN(c4ccncc4)CC3)C2)c(C)c1 [Example 85, (S)-2-(3-(1-(4-Methoxy-2,6-dimethylphenylsulfonyl)pyrrolidin-2-yl)propylsulfonyl)-8-(pyridin-4-yl)-2,8-diazaspiro[4.5]decane] | 101% | 99% |
| Cc1cccc(Cl)c1S(=O)(=O)N1CCCCC1CCCS(=O)(=O)N1CCC2(CCN(c3ccncc3)CC2)CC1 (centres unmarked) [Example 86, 3-(3-(1-(2-Chloro-6-methylphenylsulfonyl)piperidin-2-yl)propylsulfonyl)-9-(pyridin-4-yl)-3,9-diazaspiro[5.5]undecane] | 101% | 99% |
| COc1cc(C)c(S(=O)(=O)N2CCCCC2CCCS(=O)(=O)N2CCC3(CC2)CCC(OCCN2CCCC2)(c2cccnc2)CC3)c(C)c1 (centres unmarked) [Example 87, 3-(3-(1-(4-Methoxy-2,6-dimethylphenylsulfonyl)piperidin-2-yl)propylsulfonyl)-9-(pyridin-3-yl)-9-(2-(pyrrolidin-1-yl)ethoxy)-3-azaspiro[5.5]undecane] | 102% | 100% |
